Tests used:
[1] = biological target: 5-hydroxytryptamine receptor 1E (Homo sapiens) (UniProt P28566); conditions: Compound concentration 10.0 uM
[2] = biological target: Sodium-dependent dopamine transporter (Homo sapiens) (UniProt Q01959); conditions: Compound concentration 10.0 uM
Chain of Sodium-dependent dopamine transporter (Homo sapiens) (Q01959 whole entry): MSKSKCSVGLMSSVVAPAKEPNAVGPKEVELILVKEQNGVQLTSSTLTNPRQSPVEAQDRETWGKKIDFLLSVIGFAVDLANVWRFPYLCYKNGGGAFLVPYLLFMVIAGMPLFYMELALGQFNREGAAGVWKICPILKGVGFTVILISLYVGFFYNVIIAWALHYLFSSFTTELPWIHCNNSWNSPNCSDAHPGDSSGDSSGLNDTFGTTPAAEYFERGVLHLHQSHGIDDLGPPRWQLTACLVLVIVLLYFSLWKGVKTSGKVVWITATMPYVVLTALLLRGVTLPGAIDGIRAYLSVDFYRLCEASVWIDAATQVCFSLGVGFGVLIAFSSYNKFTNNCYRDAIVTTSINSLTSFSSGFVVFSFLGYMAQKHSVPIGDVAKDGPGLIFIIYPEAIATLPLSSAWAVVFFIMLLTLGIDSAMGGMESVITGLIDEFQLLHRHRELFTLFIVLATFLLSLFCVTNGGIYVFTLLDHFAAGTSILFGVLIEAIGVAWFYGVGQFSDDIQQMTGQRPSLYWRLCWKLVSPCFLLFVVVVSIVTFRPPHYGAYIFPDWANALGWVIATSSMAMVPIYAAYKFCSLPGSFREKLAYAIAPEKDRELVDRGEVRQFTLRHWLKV

Chain of 5-hydroxytryptamine receptor 1E (Homo sapiens) (P28566 whole entry): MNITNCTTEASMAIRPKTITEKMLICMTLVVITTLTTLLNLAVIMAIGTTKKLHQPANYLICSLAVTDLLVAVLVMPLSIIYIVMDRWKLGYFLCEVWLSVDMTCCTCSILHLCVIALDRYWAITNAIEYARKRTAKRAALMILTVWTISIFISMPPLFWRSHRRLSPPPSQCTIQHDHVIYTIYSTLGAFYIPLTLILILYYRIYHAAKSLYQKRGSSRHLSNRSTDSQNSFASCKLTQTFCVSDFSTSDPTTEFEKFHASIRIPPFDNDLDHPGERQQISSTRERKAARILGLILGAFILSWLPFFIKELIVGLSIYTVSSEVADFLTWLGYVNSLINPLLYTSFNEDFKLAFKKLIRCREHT

SMILES | inhibition [1] | inhibition [2]
COc1ccc2c(c1)O[C@H](c1ccc(OC)c(OC)c1)C[C@@H]2NC(=O)C1(c2ccc3c(c2)OC(F)(F)O3)CC1 [A-1596584] | 1.27% | 
COc1ccc2c(c1)O[C@@H](c1ccc(OC)c(OC)c1)C[C@H]2NC(=O)C1(c2ccc3c(c2)OC(F)(F)O3)CC1 [A-1596586] |  | 6.33%
